Results as given in patent publication US12486280B2, “CDK inhibitors and uses thereof” (California Institute of Technology, priority 2018, dated 2025).
Converted amounts (≈) assume the structure as drawn. Like-named read-outs stand apart in the source and are kept apart here.

Assays:
CDK4 = CDK4 (Homo sapiens (Human), UniProt P11802); test: Cdk4 and 6 Enzymatic Inhibition Assay (radiometric 33PanQinase, Ki determination); format: biochemical
Protocol: (§1) 10 distinct concentrations were prepared, with a dilution endpoint of 6×10^−9 M in 100% DMSO. 100% DMSO was used as a control. 10 μL from each of the serial dilutions were aliquoted into separate wells of a 96-well plate and 90 μL of water were added to each of those wells. The plate was shaken thoroughly, and 5 μL from each of the plate's wells were transferred into wells of the assay plate. The final volume of wells in the assay plate was 50 μL. A11 compounds were tested at 10 assay concentrations in the range from 2×10^−6 M to 6×10^−11 M. The final DMSO concentration in the wells of the assay plate was 1% in all cases.
(§2) A radiometric protein kinase assay (33PanQinase® Activity Assay) was used for measuring the kinase activity of six protein kinases. A11 kinase assays were performed in 96-well FlashPlates™ from PerkinElmer (Boston, MA, USA). The assay for all protein kinases contained 70 mM HEPES-NaOH pH 7.5, 3 mM MgCl2, 3 mM MnCl2, 3 μM Na-orthovanadate, 1.2 mM DTT, 50 μg/mL PEG20000, ATP [γ-33P]-ATP (approx. 9×1005 cpm per well), protein kinase and substrate. The reaction cocktails were incubated at 30° C. for 60 minutes. The reaction was stopped with 50 μL of 2% (v/v) H3PO4, and plates were aspirated and washed two times with 200 μL 0.9% (w/v) NaCl. Incorporation of ^33Pi was determined with a microplate scintillation counter (Microbeta, Wallac).

CDK6 = CDK6 (Homo sapiens (Human), UniProt Q00534); test: as above; format: biochemical
CDK6, sequence (Q00534 whole entry): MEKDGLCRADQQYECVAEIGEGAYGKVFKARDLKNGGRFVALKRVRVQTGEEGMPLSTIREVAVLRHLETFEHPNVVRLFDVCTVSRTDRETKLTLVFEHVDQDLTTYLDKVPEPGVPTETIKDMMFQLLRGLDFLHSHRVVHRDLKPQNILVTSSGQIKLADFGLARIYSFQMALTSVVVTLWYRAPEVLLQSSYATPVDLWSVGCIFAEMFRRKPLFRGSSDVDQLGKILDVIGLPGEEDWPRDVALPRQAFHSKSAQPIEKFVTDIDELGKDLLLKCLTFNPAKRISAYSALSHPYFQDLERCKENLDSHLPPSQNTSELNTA
CDK6, sequence (P24385 whole entry partner): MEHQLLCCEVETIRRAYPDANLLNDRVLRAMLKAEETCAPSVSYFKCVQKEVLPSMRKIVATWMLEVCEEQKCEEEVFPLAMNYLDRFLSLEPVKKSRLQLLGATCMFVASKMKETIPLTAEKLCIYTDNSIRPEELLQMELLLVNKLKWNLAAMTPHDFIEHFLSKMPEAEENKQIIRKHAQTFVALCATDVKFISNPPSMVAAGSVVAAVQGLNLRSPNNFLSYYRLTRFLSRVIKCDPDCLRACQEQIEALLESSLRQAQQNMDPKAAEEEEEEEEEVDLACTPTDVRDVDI
Protocol: as §1, §2

[1] = test system: drug-sensitive cell lines of Table 2 (EFM-19, MDA-MB-453, T-47D, ZR-75-1, NCI-H441, OVTOKO, NCI-H1838); test: Cell Line Growth Retardation Assay, sensitive cohort; format: cell-based, human; conditions: for IC50: Homo sapiens, geometric mean over sensitive cohort, 6 days growth, read-out: AvgSensIC50; for Ther Window: average IC50 drug-resistant group divided by average IC50 drug-sensitive group
Protocol: (§3) Cells were seeded at densities of 1,000-5,000 cells per well in 48-well tissue culture plates. After a 24 hours rest period, cells were treated with compound at 10 μM, 2 μM, 0.4 μM, 0.08 μM, 0.016 μM, and 0.0032 μM. A group of cells were treated with the vehicle in which the compound was prepared and served as a control. The cells were grown in the presence of compounds for 6 days and were counted on day 0 and day 6. A11 cell counting was performed using a Synentec Cellavista plate imager. […] Growth inhibition was calculated as a ratio of cell population doublings in the presence of compound versus the absence of compound. […] IC50 values for each compound (see Table 3; reported in μM) were calculated by fitting curves to data points from each dose-response assay using the Proc NLIN function in SAS for Windows version 9.2 (SAS Institute, Inc.).
(§4) These sensitive and resistant cohorts were interrogated for response to each compound, and IC50s were calculated for each cell line using the same technique described above. Average IC50s for the sensitive and resistant cohorts were calculated as geometric means of the group. “Therapeutic Window” for each compound was calculated by dividing the average IC50 for the drug-resistant group by the average IC50 for the drug-sensitive group.

hERG potassium channels = hERG potassium channels (Homo sapiens (Human), UniProt Q12809); test: hERG Inhibition Assay (QPatch automated patch clamp, CHO cells); conditions: percent of control current
hERG potassium channels, sequence (Q12809 whole entry): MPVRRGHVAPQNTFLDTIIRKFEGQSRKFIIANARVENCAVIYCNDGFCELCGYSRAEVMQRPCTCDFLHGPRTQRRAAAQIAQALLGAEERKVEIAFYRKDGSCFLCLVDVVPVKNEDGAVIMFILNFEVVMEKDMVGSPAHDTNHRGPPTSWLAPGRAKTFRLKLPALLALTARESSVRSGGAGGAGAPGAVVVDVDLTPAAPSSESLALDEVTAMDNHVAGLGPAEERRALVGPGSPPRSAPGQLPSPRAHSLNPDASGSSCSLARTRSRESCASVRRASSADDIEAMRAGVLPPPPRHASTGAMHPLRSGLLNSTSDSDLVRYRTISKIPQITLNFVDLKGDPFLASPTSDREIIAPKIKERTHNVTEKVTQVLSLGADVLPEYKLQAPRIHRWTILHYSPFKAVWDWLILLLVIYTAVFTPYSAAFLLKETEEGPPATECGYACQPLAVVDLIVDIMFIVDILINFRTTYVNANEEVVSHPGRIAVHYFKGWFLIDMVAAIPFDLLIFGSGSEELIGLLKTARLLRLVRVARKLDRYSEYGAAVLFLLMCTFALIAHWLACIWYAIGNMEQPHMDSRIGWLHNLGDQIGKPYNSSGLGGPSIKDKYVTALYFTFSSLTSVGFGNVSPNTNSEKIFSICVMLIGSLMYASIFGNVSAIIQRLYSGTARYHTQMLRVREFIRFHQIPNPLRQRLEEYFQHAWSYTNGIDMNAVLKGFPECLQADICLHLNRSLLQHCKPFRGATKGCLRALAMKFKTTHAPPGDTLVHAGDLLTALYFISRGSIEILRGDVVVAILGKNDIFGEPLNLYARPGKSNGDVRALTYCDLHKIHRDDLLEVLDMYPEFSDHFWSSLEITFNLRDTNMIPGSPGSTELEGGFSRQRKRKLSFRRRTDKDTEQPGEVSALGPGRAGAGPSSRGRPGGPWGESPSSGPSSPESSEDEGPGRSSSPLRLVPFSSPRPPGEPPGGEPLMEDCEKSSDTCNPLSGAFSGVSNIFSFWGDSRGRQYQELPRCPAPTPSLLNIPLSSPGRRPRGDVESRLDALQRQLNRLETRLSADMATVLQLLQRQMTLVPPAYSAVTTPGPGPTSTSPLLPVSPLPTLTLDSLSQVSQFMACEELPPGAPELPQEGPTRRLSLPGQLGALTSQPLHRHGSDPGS

[2] = test system: drug-resistant cell lines of Table 2 (NCI-H1437, OV207, HCC1806, NCI-H2172); test: Cell Line Growth Retardation Assay, resistant cohort; format: cell-based, human; conditions: Homo sapiens, […], geometric mean over resistant cohort; 6 days growth; read-out: AvgResIC50
Protocol: as §3, §4

[3] = Measurement of Compound Metabolic Stability in hepatocytes
[4] = Caco-2 Assay (Papp A to B); conditions: human, Caco-2, pH 7.4
[5] = Compound Solubility Assay (kinetic solubility); format: physicochemical; conditions: kinetic from dmso stock
Protocol: The relative kinetic solubility of each compound was determined at both low (1.2) and neutral (7.4) pH. Compounds were prepared at 10 mM stocks. […] Compounds were allowed to shake at room temperature for 24 hours in 50 mM phosphate buffer pH 7.4, or in SGF buffer pH 1.2 at 37° C. for 24 hours.

[6] = test system: CYP isozymes (IC50s averaged over the isozymes); test: CYP Enzymatic Inhibition Assay in human liver microsomes

CDK4, sequence (P11802 whole entry): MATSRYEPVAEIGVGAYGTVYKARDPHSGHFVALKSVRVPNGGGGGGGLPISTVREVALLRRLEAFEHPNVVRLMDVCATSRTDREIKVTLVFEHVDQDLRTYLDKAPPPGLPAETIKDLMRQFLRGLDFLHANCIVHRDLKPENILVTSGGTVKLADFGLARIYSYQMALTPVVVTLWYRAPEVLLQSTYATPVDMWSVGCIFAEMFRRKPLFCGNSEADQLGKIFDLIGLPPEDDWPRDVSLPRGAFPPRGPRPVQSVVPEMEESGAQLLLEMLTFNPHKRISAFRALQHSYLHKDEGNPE
CDK4, sequence (P24385 whole entry partner): as the sequence (P24385 whole entry partner) above

Ki (CDK4) [nM]	Ki (CDK6) [nM]	IC50 [1] [nM]	IC50 [2] [nM]	half-life at 1 μM [3] [h]	Papp A→B at 2 h, 2 μM [4] [×10⁻⁶ cm/s]	solubility kinetic at 24 h ([5]; 50 mM phosphate buffer, pH 7.4, aqueous buffer, read-out: KS7) [µM]	solubility kinetic at 24 h ([5]; simulated gastric fluid, kinetic solubility, SGF buffer pH 1.2, 37° C., 24 hours, read-out: KS1) [µM]	IC50 at 10 min [6] [nM]	SMILES	Ther Window [1]	hERG (hERG potassium channels) [%]
1.77	1.08	640	1000	–	–	–	–	–	Cc1nc2c(F)cc(-c3nc(Nc4ccc(CN5CCOC(C)(C)C5)cn4)ncc3F)cc2n1C(C)C [Compound A48]	1.56	–
8	38.4	620	1000	–	–	–	–	–	Cc1nc2c(F)cc(-c3nc(Nc4ccc(CN5CCOC(C)(CO)C5)cn4)ncc3F)cc2n1C(C)C (stereo not drawn) [Compound A51]	1.62	–
2.4	14.8	260	1000	–	–	–	–	–	Cc1nc2c(F)cc(-c3nc(Nc4ccc(CN5CCO[C@](C)(CC(=O)N6CC(F)(F)C6)C5)cn4)ncc3F)cc2n1C(C)C [Compound A56, (R)-1-(3,3-difluoroazetidin-1-yl)-2-(4-((6-((5-fluoro-4-(4-fluoro-1-isopropyl-2-methyl-1H-benzo[d]imidazol-6-yl)pyrimidin-2-yl)amino)pyridin-3-yl)methyl)-2-methylmorpholin-2-yl)ethan-1-one]	3.76	–
1.53	9.53	220	940	–	–	–	–	–	Cc1nc2c(F)cc(-c3nc(Nc4ccc(CN5CCC56COC6)cn4)ncc3F)cc2n1C(C)C [Compound A61, N-(5-((6-oxa-1-azaspiro[3.3]heptan-1-yl)methyl)pyridin-2-yl)-5-fluoro-4-(4-fluoro-1-isopropyl-2-methyl-1H-benzo[d]imidazol-6-yl)pyrimidin-2-amine]	4.27	–
0.75	3.14	100	500	–	–	–	–	–	Cc1nc2c(F)cc(-c3nc(Nc4ccc(CN5CC6(CCC6)C5)cn4)ncc3F)cc2n1C(C)C [Compound A63, N-(5-((2-azaspiro[3.3]heptan-2-yl)methyl)pyridin-2-yl)-5-fluoro-4-(4-fluoro-1-isopropyl-2-methyl-1H-benzo[d]imidazol-6-yl)pyrimidin-2-amine]	5.03	–
0.9	4.53	150	730	–	–	–	–	–	Cc1nc2c(F)cc(-c3nc(Nc4ccc(CN5CC6(C5)CC(F)(F)C6)cn4)ncc3F)cc2n1C(C)C [Compound A64, N-(5-((6,6-difluoro-2-azaspiro[3.3]heptan-2-yl)methyl)pyridin-2-yl)-5-fluoro-4-(4-fluoro-1-isopropyl-2-methyl-1H-benzo[d]imidazol-6-yl)pyrimidin-2-amine]	4.87	–

More lines, now with the values behind:

SMILES	Ki (CDK4) [nM]	Ki (CDK6) [nM]	IC50 [1] [nM]	IC50 [2] [nM]	half-life at 1 μM [3] [h]	Papp A→B at 2 h, 2 μM [4] [×10⁻⁶ cm/s]	solubility kinetic at 24 h ([5]; 50 mM phosphate buffer, pH 7.4, aqueous buffer, read-out: KS7) [µM]	solubility kinetic at 24 h ([5]; simulated gastric fluid, kinetic solubility, SGF buffer pH 1.2, 37° C., 24 hours, read-out: KS1) [µM]	IC50 at 10 min [6] [nM]	Ther Window [1]	hERG (hERG potassium channels) [%]
CNCC[C@]1(C)CN(Cc2ccc(Nc3ncc(F)c(-c4cc(F)c5nc(C)n(C(C)C)c5c4)n3)nc2)CCO1 [Compound A5, (R)-5-fluoro-4-(4-fluoro-1-isopropyl-2-methyl-1H-benzo[d]imidazol-6-yl)-N-(5-((2-methyl-2-(2-(methylamino)ethyl)morpholino)methyl)pyridin-2-yl)pyrimidin-2-amine]	1.21	6.26	180	960	–	–	–	–	–	5.33	14.76
Cc1nc2c(F)cc(-c3nc(Nc4ccc(CN5CCO[C@](C)(CCNC(C)(C)C)C5)cn4)ncc3F)cc2n1C(C)C [Compound A7, (R)—N-(5-((2-(2-(tert-butylamino)ethyl)-2-methylmorpholino)methyl)pyridin-2-yl)-5-fluoro-4-(4-fluoro-1-isopropyl-2-methyl-1H-benzo[d]imidazol-6-yl)pyrimidin-2-amine]	1	4.24	160	920	1.24	0.04	–	–	–	5.75	–
Cc1nc2c(F)cc(-c3nc(Nc4ccc(CN5CCO[C@](C)(CCN6CC(C)(O)C6)C5)cn4)ncc3F)cc2n1C(C)C [Compound A10, (R)-1-(2-(4-((6-((5-fluoro-4-(4-fluoro-1-isopropyl-2-methyl-1H-benzo[d]imidazol-6-yl)pyrimidin-2-yl)amino)pyridin-3-yl)methyl)-2-methylmorpholin-2-yl)ethyl)-3-methylazetidin-3-ol]	0.96	5.52	70	970	1.11	0.01	–	–	–	14.08	–
Cc1nc2c(F)cc(-c3nc(Nc4ccc(CN5CCO[C@](C)(CCN)C5)cn4)ncc3F)cc2n1C(C)C [Compound A21, (R)—N-(5-((2-(2-aminoethyl)-2-methylmorpholino)methyl)pyridin-2-yl)-5-fluoro-4-(4-fluoro-1-isopropyl-2-methyl-1H-benzo[d]imidazol-6-yl)pyrimidin-2-amine]	–	–	150	1000	1.61	–	–	–	–	6.58	–
Cc1nc2c(F)cc(-c3nc(Nc4ccc(CN5CCO[C@@]6(CCN(C)C6)C5)cn4)ncc3F)cc2n1C(C)C [Compound A39, (R)-5-fluoro-4-(4-fluoro-1-isopropyl-2-methyl-1H-benzo[d]imidazol-6-yl)-N-(5-((2-methyl-6-oxa-2,9-diazaspiro[4.5]decan-9-yl)methyl)pyridin-2-yl)pyrimidin-2-amine]	1.83	6.62	300	980	–	–	–	–	–	3.25	14.81
CCOCC[C@]1(C)CN(Cc2ccc(Nc3ncc(F)c(-c4cc(F)c5nc(C)n(C(C)C)c5c4)n3)nc2)CCO1 [Compound A54]	26.9	108	1000	1000	–	–	–	–	–	1.00	–
CCN(CC)C(=O)C[C@]1(C)CN(Cc2ccc(Nc3ncc(F)c(-c4cc(F)c5nc(C)n(C(C)C)c5c4)n3)nc2)CCO1 [Compound A57, (R)-2-(4-((6-((5-fluoro-4-(4-fluoro-1-isopropyl-2-methyl-1H-benzo[d]imidazol-6-yl)pyrimidin-2-yl)amino)pyridin-3-yl)methyl)-2-methylmorpholin-2-yl)-N,N-diethylacetamide]	3.91	24	390	1000	–	–	–	–	–	2.56	–
Cc1nc2c(F)cc(-c3nc(Nc4ccc(CN5CCO[C@](C)(CC(=O)N6CCC6)C5)cn4)ncc3F)cc2n1C(C)C [Compound A58, (R)-1-(azetidin-1-yl)-2-(4-((6-((5-fluoro-4-(4-fluoro-1-isopropyl-2-methyl-1H-benzo[d]imidazol-6-yl)pyrimidin-2-yl)amino)pyridin-3-yl)methyl)-2-methylmorpholin-2-yl)ethan-1-one]	2.64	19.8	340	1000	–	–	–	–	–	2.94	–
CC(=O)c1c(C)c2cnc(Nc3ccc(N4CCNCC4)cn3)nc2n(C2CCCC2)c1=O [Palbociclib, reference compound]	–	–	–	–	0.915	0.27	29.6 (≈ 13.2 µg/mL)	196 (≈ 87.6 µg/mL)	97700	9.37	–
